Values of other authors, collected in patent US5618841A, “Composition of iodophor teat dip for the prevention of mastitis and a process for using the same” (priority 1994, dated 1997).

Columns and labels:
microorganism = details: rank order
[1] = first ionization constant
[2] = 25° C.

Row | SMILES | relative antimicrobial strength, with respect to citric acid (microorganism) | pKa [1] | solubility in water [2] [%]
1 | O=C(O)CO [Glycolic acid] | Mandelic acid>Lactic acid>Glycolic acid>Malic acid>Citric acid |  | 
2 | CC(O)C(=O)O (stereo not drawn) [Lactic acid] | Mandelic acid>Lactic acid>Glycolic acid>Malic acid>Citric acid |  | 
3 | O=C(O)CC(O)C(=O)O (stereo not drawn) [Malic acid] | Mandelic acid>Lactic acid>Glycolic acid>Malic acid>Citric acid |  | 
4 | O=C(O)C(O)c1ccccc1 (stereo not drawn) [Mandelic acid] | Mandelic acid>Lactic acid>Glycolic acid>Malic acid>Citric acid | 3.39 | 
5 | II [elemental iodine] |  |  | 0.03
